In patent publication US20060100140A1, “Combination of a) n-{5-[4-(4-methyl-piperazino-methyl)-benzoylamido]2-methylphenyl}-4- (3-pyridyl)-2-pyrimidine-amine and b) a histone deacetylase inhibitor for the treatment of leukemia” (priority 2002, published 2006):

Key:
Format in all cases: cell-based, human
K562 cells [1] = test: Loss of mitochondrial membrane potential (DiOC6 flow cytometry); conditions: 2.0 μM SAHA ± 250 nM Compound I
Protocol: Determination of MMP(ΔΨm): MMP is monitored using DiOC6 [36]. For each condition, 4×10^5 cells are incubated for 15 min at 37° C. in 1 ml of 40 nM DiOC6 (Calbiochem) and subsequently analyzed using a Becton Dickinson FACScan cytofluorometer with excitation and emission settings of 488 and 525 nm, respectively. Control experiments documenting the loss of ΔΨm are performed by exposing cells to 5 μM of […] cyanide m-chlorophenylhydrazone (Sigma Chemical Co.; 15 min, 37° C.), an uncoupling agent that abolishes the MMP.

K562 cells [2] = test: Apoptosis by morphological analysis of Wright Giemsa-stained cytospin preparations; conditions: for percentage of apoptotic cells: Table 2A, 2.0 μM SAHA ± 250 nM Compound I; for % of apoptotic cells: Table 5, K562: SAHA […]
Protocol: (§1) Experimental Format: Logarithmically growing cells are placed in sterile plastic T-flasks (Corning, Corning, N.Y.) to which are added the designated drugs and the flasks replaced in the incubator for intervals. At the end of the incubation period, cells are transferred to sterile centrifuge tubes, pelleted by centrifugation at 400×g for 10 min at room temperature, and prepared for analysis as described below.
(§2) Assessment of Apoptosis: After drug exposures, cytocentrifuge preparations are stained with Wright-Giemsa and viewed by light microscopy to evaluate the extent of apoptosis (i.e., cell shrinkage, nuclear condensation, formation of apoptotic bodies, etc.) as described previously (Yu et al., Nat. Rev. Cancer 1:294-202). For these studies, the percentage of apoptotic cells is determined by evaluating ≧500 cells/condition in triplicate. To confirm the results of morphological analysis, Annexin V/PI staining is used. Annexin V/PI (BD PharMingen, San Diego, Calif.) analysis of cell death is carried out as per the manufacturer's instructions. In studies involving TNF and TNF soluble receptor, both compound are combined and maintained at room temperature 20 min prior to use. For these experiments 1-2×10^5 cells per condition are harvested. Analysis is carried out using a Becton-Dickinson FACScan cytofluorometer (Mansfield, Mass.). To further confirm the morphology results, TUNEL staining is used. For TUNEL staining, cytocentrifuge preparations are obtained and fixed with 4% formaldehyde. The slides are treated with acetic acid/ethanol (1:2), stained with terminal transferase reaction mixture containing 1× terminal transferase reaction buffer (0.25 units/μl terminal transferase, 2.5 mM CoCl2, and 2 pmol fluorescein-12-dUTM; Boehringer Mannheim, Indianapolis, Ind.), and visualized using fluorescence microscopy.

[3] = system: Jurkat lymphoblastic leukemia; test: Apoptosis by Wright Giemsa-stained cytospin slides; conditions: Jurkat: SAHA 0.75 μM; Compound I 250 nM; 24 hr
Protocol: as §1, §2

[4] = system: HL-60 promyelocytic leukemia cells; test: Apoptosis by Wright Giemsa-stained cytospin slides; conditions: HL-60: SAHA 1.0 μM; Compound I 250 nM; 24 hr
Protocol: as §1, §2

[5] = system: Compound I-resistant LAMA 84 cells (LAMA 84R); test: Apoptosis by Wright Giemsa-stained cytospin slides in resistant cells; conditions: Table 7, 24 hr, Compound I (1.0 or 1.25 μM), SAHA (1.0 or 2.0)
Protocol: For studies involving the LAMA 84-R line, cells are washed free of drug and resuspended in drug-free medium 48 h before experimentation.
as §2, with “To further confirm the morphology results, TUNEL staining is used. For TUNEL staining, cytocentrifuge preparations are obtained and fixed with 4% formaldehyde.” left out

[6] = system: cytochrome c, AIF, and Smac/DIABLO; test: Western analysis of release of cytochrome c, AIF and Smac/DIABLO into S-100 cytosolic fraction; conditions: K562; Compound I (250 nM), SAHA (2.0 μM); 24 hr
Raf = test: Western analysis of Raf expression in K562 cells; conditions: 2.0 μM SAHA ± 250 nM Compound I, 16 hr
Protocol: Immunoblot Analysis: Immunoblotting is performed as described previously (Yu et al., Nat. Rev. Cancer 1:294-202). In brief, after drug treatment cells are pelleted by centrifugation, and lysed immediately in Laemmli buffer [1×=30 mM Tris-base (pH 6.8), 2% SDS, […] β-mercaptoethanol, and 10% glycerol], and briefly sonicated. Homogenates are quantified using Coomassie protein assay reagent (Pierce, Rockford, Ill.). Equal amounts of protein (20 μg) are boiled for 10 min, separated by SDS-PAGE (5% stacker and 10% resolving), and electroblotted to nitrocellulose membrane. After blocking in TBS-T (0.05%) and 5% milk for 1 h at 22° C., the blots are incubated in fresh blocking solution with an appropriate dilution of primary antibody for 4 h at 22° C. […]
K562 cells are treated as above, and monitored for expression of Bcl-xL, Mcl-1, and XIAP. […]

## Cc1ccc(NC(=O)c2ccc(CN3CCN(C)CC3)cc2)cc1Nc1nccc(-c2cccnc2)n1 [Compound I, N-{5-[4-(4-methyl-piperazino-methyl)-benzoylamido]-2-methylphenyl}-4-(3-pyridyl)-2-pyrimidine-amine]
K562 cells [1]; 0 hours
  percentage of cells displaying loss of mitochondrial membrane potential (ΔΨm): 5.7 ± 1.8%
K562 cells [1]; 6 hours
  percentage of cells displaying loss of mitochondrial membrane potential (ΔΨm): 8.8 ± 1.9%
K562 cells [1]; 24 hours
  percentage of cells displaying loss of mitochondrial membrane potential (ΔΨm): 17.8 ± 3.4%
K562 cells [1]; 48 hours
  percentage of cells displaying loss of mitochondrial membrane potential (ΔΨm): 41.3 ± 4.3%
K562 cells [2]; Table 1A, Compound I 100 nM, SAHA 0 or 2 μM, 24 hr
  apoptosis: 1.1 ± 0.5%
K562 cells [2]; Table 1A, Compound I 150 nM, SAHA 0 or 2 μM, 24 hr
  apoptosis: 1.3 ± 0.6%
K562 cells [2]; Table 1A, Compound I 200 nM, SAHA 0 or 2 μM, 24 hr
  apoptosis: 1.6 ± 0.6%
K562 cells [2]; Table 1A, Compound I 250 nM, SAHA 0 or 2 μM, 24 hr
  apoptosis: 2.8 ± 1.2%
K562 cells [2]; Table 1B, SAHA 0 μM, Compound I 250 nM, 24 hr
  apoptosis: 2.7 ± 1.2%
K562 cells [2]; 0 hours
  percentage of apoptotic cells: 0.6 ± 0.2%
K562 cells [2]; 6 hours
  percentage of apoptotic cells: 1.1 ± 0.5%
K562 cells [2]; 12 hours
  percentage of apoptotic cells: 2.1 ± 0.8%
K562 cells [2]; 18 hours
  percentage of apoptotic cells: 3.3 ± 1.0%
K562 cells [2]; 24 hours
  percentage of apoptotic cells: 3.5 ± 1.2%
K562 cells [2]; 48 hours
  percentage of apoptotic cells: 21.8 ± 3.4%
K562 cells [2]; Compound I 250 nM, 24 hr
  % of apoptotic cells: 8.3 ± 3.2%
K562 cells [2]; Table 6, K562, 24 hr, sodium butyrate (SB; 1 or 2 mM), Compound I concentration not given
  Compound I + SB % of apoptotic cells: 10.3 ± 3.6%
K562 cells [2]; sensitive K562, Compound I (1.0 or 1.25 μM) for 48 hr, data not shown
  cell death: ~100%
[3]
  % of apoptotic cells: 1.1 ± 0.6%
[4]
  % of apoptotic cells: 3.1 ± 1.3%
[5]
  Compound I + SAHA % of apoptotic cells: 14.8 ± 4.7%
[6]
  release of cytochrome c, AIF, and Smac/DIABLO into the cytosolic S-100 cell fraction: minimal
Raf
  expression of Raf: little effect

## O=C(CCCCCCC(=O)Nc1ccccc1)NO [SAHA, suberoylanilide hydroxamic acid]
K562 cells [1]; 0 hours
  percentage of cells displaying loss of mitochondrial membrane potential (ΔΨm): 5.4 ± 1.6%
K562 cells [1]; 6 hours
  percentage of cells displaying loss of mitochondrial membrane potential (ΔΨm): 8.1 ± 1.9%
K562 cells [1]; 12 hours
  percentage of cells displaying loss of mitochondrial membrane potential (ΔΨm): 10.4 ± 2.1%
K562 cells [1]; 18 hours
  percentage of cells displaying loss of mitochondrial membrane potential (ΔΨm): 12.3 ± 2.8%
K562 cells [1]; 24 hours
  percentage of cells displaying loss of mitochondrial membrane potential (ΔΨm): 16.4 ± 2.9%
K562 cells [1]; 48 hours
  percentage of cells displaying loss of mitochondrial membrane potential (ΔΨm): 20.5 ± 2.8%
K562 cells [2]; Table 1B, SAHA 1 μM, Compound I 0 or 250 nM, 24 hr
  apoptosis: 0.8 ± 0.4%
K562 cells [2]; Table 1B, SAHA 1.5 μM, Compound I 0 or 250 nM, 24 hr
  apoptosis: 1.6 ± 0.7%
K562 cells [2]; Table 1B, SAHA 2.0 μM, Compound I 0 or 250 nM, 24 hr
  apoptosis: 2.7 ± 0.7%
K562 cells [2]; Table 1B, SAHA 3.0 μM, Compound I 0 or 250 nM, 24 hr
  apoptosis: 28.4 ± 3.2%
K562 cells [2]; Table 1B, SAHA […], Compound I 0 or 250 nM, 24 hr
  apoptosis: 14.5 ± 1.3%
K562 cells [2]; 0 hours
  percentage of apoptotic cells: 0.6 ± 0.2%
K562 cells [2]; 6 hours
  percentage of apoptotic cells: 0.9 ± 0.2%
K562 cells [2]; 12 hours
  percentage of apoptotic cells: 1.7 ± 0.5%
K562 cells [2]; 18 hours
  percentage of apoptotic cells: 2.3 ± 0.8%
K562 cells [2]; 24 hours
  percentage of apoptotic cells: 3.5 ± 1.1%
K562 cells [2]; 48 hours
  percentage of apoptotic cells: 14.8 ± 2.1%
K562 cells [2]; Compound I 250 nM, 24 hr
  % of apoptotic cells: 6.6 ± 3.8%
[3]
  % of apoptotic cells: 6.3 ± 3.2%
[4]
  % of apoptotic cells: 6.4 ± 1.9%
[5]
  Compound I + SAHA % of apoptotic cells: 10.3 ± 3.4%
[6]
  release of cytochrome c, AIF, and Smac/DIABLO into the cytosolic S-100 cell fraction: minimal
Raf
  expression of Raf: clear reduction
